Measurements published in patent US10952992B2, “Methods of treating intraocular pressure with activators of Tie-2” (Aerpio Pharmaceuticals, Inc., priority 2015, dated 2021).
Where “and” joins values, the source holds several entries; their conditions need not be identical. Identical values can stand only once. Counter-ions that a name gives are not always drawn.

Assays:
[1] = Example 2 aqueous humor concentrations; assay type: in vivo, male New Zealand White rabbits; conditions: for Average Peak Concentration, Aqueous Humor: solution
Protocol: (§1) To measure the concentration of Compound 1 in plasma and ocular tissues following topical ocular, subcutaneous, and intravitreal administration, New Zealand White rabbits were administered Compound 1, and plasma and ocular samples were collected at pre-determined time points. Compound 1 formulations were prepared fresh on each day of dosing.
(§2) Ocular tissue samples from both eyes of each animal were collected and weights were recorded. Plasma and ocular tissue sample concentrations of Compound 1 were determined by LC-MS/MS.
(§3) Animals were anesthetized for ocular (topical) and intravitreal dosing following the 12IA7 IACUC protocol. Each rabbit received a bolus dose of test formulation either via topical ocular administration 3 times daily on Days 1 and 2 (at 0, 6, and 12 hours), and once on Day 3 (at 0 hours) into both eyes; via intravitreal administration into both eyes once on Day 1 (at 0 hours); or via subcutaneous administration 2 times daily on Days 1 and 2 (at 0 and 8 hours) and once daily on Day 3 (at 0 hours). Doses were given within an approximately 1 hour window each day where applicable.
(§4) On Day 1, for intravitreal administration, or on Day 3, for topical ocular and subcutaneous administration, at the appropriate ocular tissue collection time points, animals were euthanized and both eyes were enucleated immediately. Following enucleation, each eye was rinsed with phosphate-buffered saline. Ocular tissue samples from both eyes of each animal were collected at predetermined time points and weights were recorded. All the samples were frozen immediately on dry ice, and stored at −60° C. to −80° C. pending bioanalysis.
(§5) An LC-MS/MS method was developed for the determination of Compound 1 in rabbit aqueous tissues (plasma, aqueous and vitreous humor) and solid ocular tissue samples. A pre-study standard curve was analyzed to determine the specificity, range, and lower limit of quantitation of the method. Plasma and tissue homogenate study samples were extracted and analyzed. All the samples were treated identically to the standards.
(§6) One eight-point standard curve was used in each analytical batch. To be accepted, each batch must have had at least five of eight standards with accuracy within ±20% of nominal, except at the lower limit of quantification (LLOQ), where ±25% was acceptable.

[2] = Example 2 iris, retina, choroid and cornea tissue concentrations; assay type: in vivo, male New Zealand White rabbits; conditions: for Average / Conc. (ng/g) OD / Conc. (ng/g) OS / Conc. (ng/mL) OD / Conc. (ng/mL) OS: sodium salt; for Average Peak Concentration, Choroid / Average Peak Concentration, Cornea / Average Peak Concentration, Iris / Average Peak Concentration, Retina: solution
Protocol: as §1, §2, §3, §4, §5, §6

[3] = Group 1 (topical ocular 1.2 mg/eye), 0.5 hr
[4] = Group 1 (topical ocular 1.2 mg/eye), 1.0 hr
[5] = Group 1 (topical ocular 1.2 mg/eye), 2.0 hr
[6] = Group 1 (topical ocular 1.2 mg/eye), 4.0 hr
[7] = Group 1: topical ocular 0.70 mg/kg/dose
[8] = Group 2 (subcutaneous 5 mg/kg/dose, solution), 0.5 hr
[9] = Group 2 (subcutaneous 5 mg/kg/dose, solution), 1.0 hr
[10] = Group 2 (subcutaneous 5 mg/kg/dose, solution), 2.0 hr
[11] = Group 2 (subcutaneous 5 mg/kg/dose, solution), 4.0 hr, BLOQ = below 0.2 ng/mL
[12] = Group 2: subcutaneous 5 mg/kg/dose
[13] = Group 4 (intravitreal 2.5 mg/eye, solution), 6.0 hr
[14] = Group 4 (intravitreal 2.5 mg/eye, solution), 24 hr
[15] = Group 4 (intravitreal 2.5 mg/eye, solution), 48 hr
[16] = Group 4: intravitreal 1.55 mg/kg/dose
[17] = Choroid, 0.5 hr, subcutaneous 5 mg/kg/dose (Group 2)
[18] = Choroid, 1 hr, subcutaneous 5 mg/kg/dose (Group 2)
[19] = Choroid, 1 hr, topical ocular 1.2 mg/eye (Group 1)
[20] = Choroid, 2 hr, topical ocular 1.2 mg/eye (Group 1)
[21] = Choroid, 4 hr, subcutaneous 5 mg/kg/dose (Group 2)
[22] = Choroid, 4 hr, topical ocular 1.2 mg/eye (Group 1)
[23] = Cornea, 0.5 hr, subcutaneous 5 mg/kg/dose (Group 2)
[24] = Cornea, 0.5 hr, topical ocular 1.2 mg/eye (Group 1)
[25] = Cornea, 1 hr, subcutaneous 5 mg/kg/dose (Group 2)
[26] = Cornea, 1 hr, topical ocular 1.2 mg/eye (Group 1)
[27] = Cornea, 2 hr, subcutaneous 5 mg/kg/dose (Group 2)
[28] = Cornea, 4 hr, subcutaneous 5 mg/kg/dose (Group 2)
[29] = Cornea, 4 hr, topical ocular 1.2 mg/eye (Group 1)
[30] = Iris, 0.5 hr, subcutaneous 5 mg/kg/dose (Group 2)
[31] = Iris, 0.5 hr, topical ocular 1.2 mg/eye (Group 1)
[32] = Iris, 1 hr, subcutaneous 5 mg/kg/dose (Group 2)

aqueous humor Average Conc. [1, 3]: 45.8 ng/g
aqueous humor Conc. OS [1, 3]: 1.78 ng/mL
aqueous humor Average Conc. [1, 4]: 15.0 ng/g
aqueous humor Conc. OD [1, 4]: 4.03 ng/mL and 3.05 ng/mL
aqueous humor Conc. OS [1, 4]: 3.55 ng/mL
aqueous humor Average Conc. [1, 5]: 31.6 ng/g
aqueous humor Conc. OD [1, 5]: 2.46 ng/mL
aqueous humor Conc. OS [1, 5]: 14.5 ng/mL and 15.8 ng/mL
aqueous humor Average Conc. [1, 6]: 8.24 ng/g
aqueous humor Conc. OD [1, 6]: 5.48 ng/mL and 7.78 ng/mL
Average Peak Concentration, Aqueous Humor [1, 7]: 45.8 ng/g
aqueous humor Average Conc. [1, 8]: 26.1 ng/g
aqueous humor Conc. OD [1, 8]: 23.5 ng/mL and 18.0 ng/mL
aqueous humor Conc. OS [1, 8]: 24.6 ng/mL and 38.2 ng/mL
aqueous humor Average Conc. [1, 9]: 3.30 ng/g
aqueous humor Conc. OD [1, 9]: 4.51 ng/mL and 3.22 ng/mL
aqueous humor Conc. OS [1, 9]: 1.84 ng/mL and 3.63 ng/mL
aqueous humor Average Conc. [1, 10]: 0.72 ng/g
aqueous humor Conc. OD [1, 10]: 0.581 ng/mL and 0.453 ng/mL
aqueous humor Conc. OS [1, 10]: 0.498 ng/mL
aqueous humor Conc. OD [1, 11]: BLOQ
aqueous humor Conc. OS [1, 11]: BLOQ
Average Peak Concentration, Aqueous Humor [1, 12]: 26.1 ng/g
aqueous humor Average Conc. [1, 13]: 80575 ng/g
aqueous humor Conc. OD [1, 13]: 90600 ng/mL and 75300 ng/mL
aqueous humor Conc. OS [1, 13]: 77100 ng/mL and 79300 ng/mL
aqueous humor Average Conc. [1, 14]: 9000 ng/g
aqueous humor Conc. OD [1, 14]: 4700 ng/mL
aqueous humor Conc. OS [1, 14]: 5190 ng/mL and 6810 ng/mL
aqueous humor Average Conc. [1, 15]: 1963 ng/g
aqueous humor Conc. OD [1, 15]: 2040 ng/mL and 2330 ng/mL
aqueous humor Conc. OS [1, 15]: 1510 ng/mL and 1970 ng/mL
aqueous humor Average Conc. ([1]; Group 4 (intravitreal 2.5 mg/eye, solution), 72 hr): 34.5 ng/g
Average Peak Concentration, Aqueous Humor [1, 16]: 80575 ng/g
aqueous humor concentrations vs free acid (FIG. 8) ([1]; intravitreal administration, up to forty-eight hours post-administration): higher aqueous humor concentrations
aqueous humor concentrations (FIG. 6) ([1]; topical ocular administration, over four hours): below 50 ng/g
Average [2, 17]: 266 ng/g
Conc. (ng/g) OD [2, 17]: 264 ng/g and 282 ng/g
Conc. (ng/g) OS [2, 17]: 282 ng/g and 235 ng/g
Conc. (ng/mL) OD [2, 17]: 24.0 ng/mL and 25.6 ng/mL
Conc. (ng/mL) OS [2, 17]: 25.6 ng/mL and 21.4 ng/mL
Average ([2]; Choroid, 0.5 hr, topical ocular 1.2 mg/eye (Group 1)): 57.7 ng/g
Average [2, 18]: 200 ng/g
Conc. (ng/g) OD [2, 18]: 320 ng/g and 211 ng/g
Conc. (ng/g) OS [2, 18]: 144 ng/g and 125 ng/g
Conc. (ng/mL) OD [2, 18]: 29.1 ng/mL and 19.2 ng/mL
Conc. (ng/mL) OS [2, 18]: 13.1 ng/mL and 11.4 ng/mL
Average [2, 19]: 32.2 ng/g
Conc. (ng/g) OD [2, 19]: 61.2 ng/g and 31.8 ng/g
Conc. (ng/g) OS [2, 19]: 16.5 ng/g and 19.5 ng/g
Conc. (ng/mL) OD [2, 19]: 5.56 ng/mL and 2.89 ng/mL
Conc. (ng/mL) OS [2, 19]: 1.50 ng/mL and 1.77 ng/mL
Average ([2]; Choroid, 2 hr, subcutaneous 5 mg/kg/dose (Group 2)): 68.8 ng/g
Average [2, 20]: 59.2 ng/g
Conc. (ng/g) OS [2, 20]: 43.9 ng/g and 64.5 ng/g
Conc. (ng/mL) OS [2, 20]: 3.99 ng/mL and 5.86 ng/mL
Average [2, 21]: 15.5 ng/g
Conc. (ng/g) OD [2, 21]: 18.7 ng/g and 16.5 ng/g
Conc. (ng/g) OS [2, 21]: 13.4 ng/g
Conc. (ng/mL) OD [2, 21]: 1.70 ng/mL and 1.50 ng/mL
Conc. (ng/mL) OS [2, 21]: 1.22 ng/mL
Average [2, 22]: 165 ng/g
Conc. (ng/g) OD [2, 22]: 27.8 ng/g and 52.1 ng/g
Conc. (ng/g) OS [2, 22]: 81.1 ng/g
Conc. (ng/mL) OD [2, 22]: 2.53 ng/mL and 4.74 ng/mL
Average [2, 23]: 19.4 ng/g
Conc. (ng/g) OS [2, 23]: 27.1 ng/g and 21.3 ng/g
Conc. (ng/mL) OS [2, 23]: 2.46 ng/mL and 1.94 ng/mL
Average [2, 24]: 1015 ng/g
Conc. (ng/g) OD [2, 24]: 240 ng/g and 370 ng/g
Conc. (ng/g) OS [2, 24]: 427 ng/g
Conc. (ng/mL) OD [2, 24]: 21.8 ng/mL and 33.6 ng/mL
Average [2, 25]: 31.1 ng/g
Conc. (ng/g) OD [2, 25]: 26.1 ng/g and 23.4 ng/g
Conc. (ng/g) OS [2, 25]: 25.3 ng/g
Conc. (ng/mL) OD [2, 25]: 2.37 ng/mL and 2.13 ng/mL
Conc. (ng/mL) OS [2, 25]: 4.52 ng/mL and 2.30 ng/mL
Average [2, 26]: 548 ng/g
Conc. (ng/g) OS [2, 26]: 482 ng/g and 532 ng/g
Conc. (ng/mL) OS [2, 26]: 43.8 ng/mL and 48.4 ng/mL
Average [2, 27]: 9.45 ng/g
Conc. (ng/g) OD [2, 27]: 11.7 ng/g
Conc. (ng/g) OS [2, 27]: 11.0 ng/g
Average ([2]; Cornea, 2 hr, topical ocular 1.2 mg/eye (Group 1)): 1073 ng/g
Average [2, 28]: 10.1 ng/g
Conc. (ng/g) OD [2, 28]: 8.27 ng/g and 9.60 ng/g
Conc. (ng/g) OS [2, 28]: 8.62 ng/g and 13.9 ng/g
Conc. (ng/mL) OD [2, 28]: 0.752 ng/mL and 0.873 ng/mL
Conc. (ng/mL) OS [2, 28]: 0.784 ng/mL and 1.26 ng/mL
Average [2, 29]: 534 ng/g
Conc. (ng/g) OD [2, 29]: 493 ng/g and 362 ng/g
Conc. (ng/mL) OD [2, 29]: 44.8 ng/mL and 32.9 ng/mL
Average Peak Concentration, Choroid [2, 7]: 57.7 ng/g
Average Peak Concentration, Cornea [2, 7]: 1015 ng/g
Average Peak Concentration, Iris [2, 7]: 24.3 ng/g
Average Peak Concentration, Retina [2, 7]: 25.6 ng/g
Average Peak Concentration, Choroid [2, 12]: 266 ng/g
Average Peak Concentration, Cornea [2, 12]: 19.4 ng/g
Average Peak Concentration, Iris [2, 12]: 459 ng/g
Average Peak Concentration, Retina [2, 12]: 40.5 ng/g
Average Peak Concentration, Choroid [2, 16]: 947375 ng/g
Average Peak Concentration, Cornea [2, 16]: 71445 ng/g
Average Peak Concentration, Iris [2, 16]: 351725 ng/g
Average Peak Concentration, Retina [2, 16]: 774400 ng/g
Average [2, 30]: 459 ng/g
Conc. (ng/g) OD [2, 30]: 305 ng/g and 454 ng/g
Conc. (ng/mL) OD [2, 30]: 27.7 ng/mL and 41.3 ng/mL
Average [2, 31]: 24.3 ng/g
Conc. (ng/g) OD [2, 31]: 28.1 ng/g and 18.7 ng/g
Conc. (ng/g) OS [2, 31]: 17.8 ng/g and 32.5 ng/g
Conc. (ng/mL) OD [2, 31]: 2.55 ng/mL and 1.7 ng/mL
Conc. (ng/mL) OS [2, 31]: 1.62 ng/mL and 2.95 ng/mL
Average [2, 32]: 94.7 ng/g
Conc. (ng/g) OD [2, 32]: 125 ng/g and 99.2 ng/g
Conc. (ng/g) OS [2, 32]: 97.6 ng/g and 56.4 ng/g
Conc. (ng/mL) OD [2, 32]: 11.4 ng/mL and 9.02 ng/mL
Conc. (ng/mL) OS [2, 32]: 8.87 ng/mL and 5.13 ng/mL
Average ([2]; Iris, 1 hr, topical ocular 1.2 mg/eye (Group 1)): 55.2 ng/g
Compound: COC(=O)N[C@@H](Cc1ccccc1)C(=O)N[C@@H](Cc1ccc(NS(=O)(=O)O)cc1)c1csc(-c2cccs2)n1 [Compound 1 sodium salt]
aqueous humor concentrations vs free acid (FIG. 7) ([1]; subcutaneous administration, early time points): increased aqueous humor concentrations as compared to the free acid
